# Laboratory results: patent US20260232767A1, “INTERLEUKIN-23 RECEPTOR ANTAGONIST PEPTIDES FOR USE IN THE TREATMENT OF PSORIASIS” (Janssen Pharmaceutica NV, priority 2023, published 2026)
# Where two headings read alike, the source gives them in different places.
# Assay: Plasma concentrations (PK), Example 1
# Format: in vivo, human
# Experimental: For QD dosing, peak concentration was defined as any PK sample taken between 0.25 to <6 hours after the last morning dose and trough concentration was at least 20 hours after the last morning dose. For BID dosing, peak concentration was defined as any PK sample taken between 0.25 to <4 hours after the last dose and trough concentration was at least 8 hours after the last dose.
smiles,measurement,setting,value
"CC(=O)NCCCC[C@@H]1NC(=O)[C@H](Cc2c[nH]c3c(C)cccc23)NC(=O)[C@H]([C@@H](C)O)NC(=O)[C@H](CC(N)=O)NC(=O)[C@@H](NC(C)=O)C(C)(C)SSC(C)(C)[C@@H](C(=O)N[C@@H](Cc2ccc(OCCN)cc2)C(=O)N[C@@H](Cc2ccc3ccccc3c2)C(=O)NC2(C(=O)N[C@@H](CCC(=O)O)C(=O)N[C@@H](CC(N)=O)C(=O)N[C@@H](Cc3cccnc3)C(=O)N(C)CC(N)=O)CCOCC2)NC1=O [IL-23 receptor antagonist peptide, Ac-[Pen]*-N-T-[W(7-Me)]-[Lys(Ac)]-[Pen]*-Phe[4-(2-aminoethoxy)]-[2-Nal]-[THP]-E-N-[3-Pal]-Sarc-NH2 (*[Pen]-[Pen]* formdisulfidebond)]",Number of subjects with plasma concentration below LLOQ,"25 mg BID, Week 2, Intermediate",0
same,Number of subjects with plasma concentration below LLOQ,"25 mg BID, Week 2, Peak",0
same,Number of subjects with plasma concentration below LLOQ,"25 mg BID, Week 2, Trough",1 (100.0%)
same,Number of subjects with plasma concentration below LLOQ,"25 mg BID, Week 4, Intermediate",0
same,Number of subjects with plasma concentration below LLOQ,"25 mg BID, Week 4, Peak",0
same,Number of subjects with plasma concentration below LLOQ,"25 mg BID, Week 4, Trough",1 (100.0%)
same,Number of subjects with plasma concentration below LLOQ,"25 mg BID, Week 8, Intermediate",0
same,Number of subjects with plasma concentration below LLOQ,"25 mg BID, Week 8, Peak",1 (50.0%)
same,Number of subjects with plasma concentration below LLOQ,"25 mg BID, Week 8, Trough",2 (100.0%)
same,Number of subjects with plasma concentration below LLOQ,"25 mg BID, Week 12, Intermediate",0
same,Number of subjects with plasma concentration below LLOQ,"25 mg BID, Week 12, Peak",0
same,Number of subjects with plasma concentration below LLOQ,"25 mg BID, Week 12, Trough",2 (100.0%)
same,Number of subjects with plasma concentration below LLOQ,"25 mg BID, Week 16, Intermediate",0
same,Number of subjects with plasma concentration below LLOQ,"25 mg BID, Week 16, Peak",0
same,"Plasma concentration, Median","25 mg BID, Week 16, Peak",0.796 ng/mL
same,Number of subjects with plasma concentration below LLOQ,"25 mg BID, Week 16, Trough",1 (100.0%)
same,"Plasma concentration, Median","25 mg BID, Week 16, Trough",0.134 ng/mL
same,Number of subjects with plasma concentration below LLOQ,"25 mg QD, Week 1, Intermediate",0
same,Number of subjects with plasma concentration below LLOQ,"25 mg QD, Week 1, Peak",0
same,Number of subjects with plasma concentration below LLOQ,"25 mg QD, Week 1, Trough, LLOQ 0.02 ng/mL",3 (100.0%)
same,Number of subjects with plasma concentration below LLOQ,"25 mg QD, Week 2, Intermediate",0
same,Number of subjects with plasma concentration below LLOQ,"25 mg QD, Week 2, Peak",3 (100.0%)
same,Number of subjects with plasma concentration below LLOQ,"25 mg QD, Week 2, Trough",0
same,Number of subjects with plasma concentration below LLOQ,"25 mg QD, Week 4, Intermediate",0
same,Number of subjects with plasma concentration below LLOQ,"25 mg QD, Week 4, Peak",0
same,Number of subjects with plasma concentration below LLOQ,"25 mg QD, Week 4, Trough",3 (100.0%)
same,Number of subjects with plasma concentration below LLOQ,"25 mg QD, Week 8, Intermediate",0
same,Number of subjects with plasma concentration below LLOQ,"25 mg QD, Week 8, Peak",0)
same,Number of subjects with plasma concentration below LLOQ,"25 mg QD, Week 8, Trough",2 (100.0%)
same,Number of subjects with plasma concentration below LLOQ,"25 mg QD, Week 12, Intermediate",0
same,Number of subjects with plasma concentration below LLOQ,"25 mg QD, Week 12, Peak",0
same,Number of subjects with plasma concentration below LLOQ,"25 mg QD, Week 12, Trough",6
same,Number of subjects with plasma concentration below LLOQ,"25 mg QD, Week 16, Intermediate",0
same,Number of subjects with plasma concentration below LLOQ,"25 mg QD, Week 16, Peak",2
same,"Plasma concentration, Median","25 mg QD, Week 16, Peak",0.295 ng/mL
same,Number of subjects with plasma concentration below LLOQ,"25 mg QD, Week 16, Trough",2
same,"Plasma concentration, Median","25 mg QD, Week 16, Trough",0.057 ng/mL
same,Number of subjects with plasma concentration below LLOQ,"50 mg QD, Week 2, Intermediate",0
same,Number of subjects with plasma concentration below LLOQ,"50 mg QD, Week 2, Peak",1 (100.0%)
same,Number of subjects with plasma concentration below LLOQ,"50 mg QD, Week 2, Trough",0
same,Number of subjects with plasma concentration below LLOQ,"50 mg QD, Week 12, Intermediate",0
same,Number of subjects with plasma concentration below LLOQ,"50 mg QD, Week 12, Peak",0
same,Number of subjects with plasma concentration below LLOQ,"50 mg QD, Week 12, Trough",2 (100.0%)
same,Number of subjects with plasma concentration below LLOQ,"50 mg QD, Week 16, Intermediate",0
same,Number of subjects with plasma concentration below LLOQ,"50 mg QD, Week 16, Peak",0
same,"Plasma concentration, Median","50 mg QD, Week 16, Peak",0.917 ng/mL
same,Number of subjects with plasma concentration below LLOQ,"50 mg QD, Week 16, Trough",3 (100.0%)
same,"Plasma concentration, Median","50 mg QD, Week 16, Trough",0.089 ng/mL
same,Number of subjects with plasma concentration below LLOQ,"100 mg BID, Week 16, Intermediate",0
same,Number of subjects with plasma concentration below LLOQ,"100 mg BID, Week 16, Peak",0
same,"Plasma concentration, Median","100 mg BID, Week 16, Peak",1.970 ng/mL
same,Number of subjects with plasma concentration below LLOQ,"100 mg BID, Week 16, Trough",1 (100.0%)
same,"Plasma concentration, Median","100 mg BID, Week 16, Trough",0.451 ng/mL
same,Number of subjects with plasma concentration below LLOQ,"100 mg QD, Week 12, Intermediate",1 (33.3%)
same,Number of subjects with plasma concentration below LLOQ,"100 mg QD, Week 12, Peak",1 (33.3%)
same,Number of subjects with plasma concentration below LLOQ,"100 mg QD, Week 12, Trough",1 (33.3%)
same,Number of subjects with plasma concentration below LLOQ,"100 mg QD, Week 16, Intermediate",1 (33.3%)
same,Number of subjects with plasma concentration below LLOQ,"100 mg QD, Week 16, Peak",0
same,"Plasma concentration, Median","100 mg QD, Week 16, Peak",1.165 ng/mL
same,Number of subjects with plasma concentration below LLOQ,"100 mg QD, Week 16, Trough",2 (66.7%)
same,"Plasma concentration, Median","100 mg QD, Week 16, Trough",0.132 ng/mL
same,Effect of body weight on systemic exposure,"baseline body weight subgroups, through Week 16",not consistently evident that body weight has a major impact on systemic exposure
same,Drug accumulation (median trough concentrations),between Week 1 and 16,no apparent drug accumulation
same,level at 672 h,"human, plasma, oral, 25 mg, 25 mg BID, Week 4, Peak, read-out: Plasma concentration, Geometric Mean",0.539 ng/mL
same,level at 672 h,"human, plasma, oral, 25 mg, 25 mg BID, Week 4, Peak, read-out: Plasma concentration, Mean",0.655 ng/mL
same,level at 672 h,"human, plasma, oral, 25 mg, 25 mg BID, Week 4, Peak, read-out: Plasma concentration, Median",0.52 ng/mL
same,level at 1344 h,"human, plasma, oral, 25 mg, 25 mg BID, Week 8, Intermediate, read-out: Plasma concentration, Geometric Mean",0.092 ng/mL
same,level at 1344 h,"human, plasma, oral, 25 mg, 25 mg BID, Week 8, Intermediate, read-out: Plasma concentration, Mean",0.092 ng/mL
same,level at 1344 h,"human, plasma, oral, 25 mg, 25 mg BID, Week 8, Intermediate, read-out: Plasma concentration, Median",0.092 ng/mL
same,level at 1344 h,"human, plasma, oral, 25 mg, 25 mg BID, Week 8, Peak, read-out: Plasma concentration, Geometric Mean",0.483 ng/mL
same,level at 1344 h,"human, plasma, oral, 25 mg, 25 mg BID, Week 8, Peak, read-out: Plasma concentration, Mean",0.672 ng/mL
same,level at 1344 h,"human, plasma, oral, 25 mg, 25 mg BID, Week 8, Peak, read-out: Plasma concentration, Median",0.545 ng/mL
same,level at 1344 h,"human, plasma, oral, 25 mg, 25 mg BID, Week 8, Trough, read-out: Plasma concentration, Geometric Mean",0.151 ng/mL
same,level at 1344 h,"human, plasma, oral, 25 mg, 25 mg BID, Week 8, Trough, read-out: Plasma concentration, Mean",0.184 ng/mL
same,level at 1344 h,"human, plasma, oral, 25 mg, 25 mg BID, Week 8, Trough, read-out: Plasma concentration, Median",0.143 ng/mL
same,level at 2016 h,"human, plasma, oral, 25 mg, 25 mg BID, Week 12, Trough, read-out: Plasma concentration, Mean",0.202 ng/mL
same,level at 672 h,"human, plasma, oral, 25 mg, 25 mg QD, Week 4, Peak, read-out: Plasma concentration, Geometric Mean",0.469 ng/mL
same,level at 672 h,"human, plasma, oral, 25 mg, 25 mg QD, Week 4, Peak, read-out: Plasma concentration, Mean",0.591 ng/mL
same,level at 672 h,"human, plasma, oral, 25 mg, 25 mg QD, Week 4, Peak, read-out: Plasma concentration, Median",0.425 ng/mL
same,level at 1344 h,"human, plasma, oral, 25 mg, 25 mg QD, Week 8, Intermediate, read-out: Plasma concentration, Geometric Mean",0.168 ng/mL
same,level at 1344 h,"human, plasma, oral, 25 mg, 25 mg QD, Week 8, Intermediate, read-out: Plasma concentration, Mean",0.211 ng/mL
same,level at 1344 h,"human, plasma, oral, 25 mg, 25 mg QD, Week 8, Intermediate, read-out: Plasma concentration, Median",0.177 ng/mL
same,level at 1344 h,"human, plasma, oral, 25 mg, 25 mg QD, Week 8, Peak, read-out: Plasma concentration, Geometric Mean",0.284 ng/mL
same,level at 1344 h,"human, plasma, oral, 25 mg, 25 mg QD, Week 8, Peak, read-out: Plasma concentration, Mean",0.443 ng/mL
same,level at 1344 h,"human, plasma, oral, 25 mg, 25 mg QD, Week 8, Peak, read-out: Plasma concentration, Median",0.325 ng/mL
same,level at 1344 h,"human, plasma, oral, 25 mg, 25 mg QD, Week 8, Trough, read-out: Plasma concentration, Geometric Mean",0.061 ng/mL
same,level at 1344 h,"human, plasma, oral, 25 mg, 25 mg QD, Week 8, Trough, read-out: Plasma concentration, Mean",0.068 ng/mL
